pIC50: −log10 of the molar value.
Biological target: recombinant human SYK (GST-hSYK fusion protein) (Homo sapiens, UniProt P43405)
Experiment: biochemical
[1] = rhSYK Activity (IC50), recombinant human GST-SYK 5 pM, ATP 25 μM, biotinylated substrate peptide 250 nM, HTRF, 10-dose titration

Excerpt: Homogeneous Time-Resolved Fluorescence (HTRF) Assay for the Recombinant Human SYK Enzyme:

CC(=O)c1ccnc(Nc2cc(C)cc(-c3cnc(C(C)(O)C(F)(F)F)s3)c2)n1 (stereo not shown) [Example 106, 1-[2-({3-methyl-5-[2-(1,1,1-trifluoro-2-hydroxypropan-2-yl)-1,3-thiazol-5-yl]phenyl}amino)pyrimidin-4-yl]ethanone]
pIC50 [1]: > 7.00

Cc1cc(Nc2nccc(C(F)(F)F)n2)cc(-c2cnc(C3(O)CCN(CC(N)=O)C3)s2)c1 (stereo not shown) [54B-20]
pIC50 (rhSYK Activity, Table 54B): > 7.00

Cc1cc(Nc2nccc(C(F)(F)F)n2)cc(-c2cnc(CNCCS(C)(=O)=O)s2)c1 [Example 88A-24]
pIC50 [1]: > 7.00

Cc1cc(Nc2nccc(C(F)(F)F)n2)cc(-c2cnc(C3(O)CCNC(C(F)(F)F)C3)s2)c1 (stereo not shown) [46-1]
pIC50 (rhSYK Activity, Table 46): > 7.00

Cc1cc(Nc2nccc(C(F)(F)F)n2)cc(-c2cnc(C3(O)CCCN(C(=O)c4ncc[nH]4)CC3)s2)c1 (stereo not shown) [Example 54D-34]
pIC50 (rhSYK Activity, Table 54D): > 7.00

CCc1ccnc(Nc2cc(C)cc(-c3cnc(C4(O)CCC4)s3)c2)n1 [Example 56-2]
pIC50 (rhSYK Activity, Table 56): > 7.00

Cc1cc(Nc2nccc(C(F)(F)F)n2)cc(-c2cnc(C(=O)N(C)CCS(C)(=O)=O)s2)c1 [Example 87A-27]
pIC50 [1]: 5.00 to 6.00

Cc1cc(Nc2nccc(C(F)(F)F)n2)cc(-c2cnc(C3CCSCC3)s2)c1 [Example 136, N-{3-methyl-5-[2-(tetrahydro-2H-thiopyran-4-yl)-1,3-thiazol-5-yl]phenyl}-4-(trifluoromethyl)pyrimidin-2-amine]
pIC50 [1]: > 7.00

Cc1cc(Nc2nccc(OC3CCNC(C)CC3)n2)cc(-c2cnc(C3(O)CCC3)s2)c1 (stereo not shown) [Example 94A-20]
pIC50 [1]: > 7.00

Cc1cc(Nc2nccc(C(F)(F)F)n2)cc(-c2cnc(C(=O)N[C@H](c3ccccc3)[C@@H](O)C(=O)O)s2)c1 [Example 87A-32]
pIC50 [1]: > 7.00

Cc1cc(Nc2nccc(C(F)(F)F)n2)cc(-c2cnc(C3(O)CCN(C(=O)CC(C)O)CC3)s2)c1 (stereo not shown) [Example 54A-27]
pIC50 (RHSYK Activity, Table 54A): > 7.00

Cc1cc(Nc2nccc(C(F)(F)F)n2)cc(-c2cnc([C@]3(O)CC[C@@H](NC(=O)Cn4ccnn4)CC3)s2)c1 [Example 54E-12]
pIC50 (rhSYK Activity, Table 54E): > 7.00

COCCCOc1ccnc(Nc2cc(C)cc(-c3cnc(C4(O)CCC(C(=O)O)C(C)C4)s3)c2)n1 (stereo not shown) [Example 113A-40]
pIC50 (rhSYK Activity, Table 113A): > 7.00

Cc1cc(Nc2nccc(C(F)(F)F)n2)cc(-c2cnc(CNCCO)s2)c1 [Example 88A-18]
pIC50 [1]: > 7.00

CC1(C)CC(O)(c2ncc(-c3cc(F)cc(Nc4nccc(C(F)(F)F)n4)c3)s2)CCC1C(=O)O (single isomer, unassigned) [Example 33A-63]
pIC50 (rhSYK Activity, Table 33-A): > 7.00

Cc1cc(Nc2nccc(OCc3cccnc3)n2)cc(-c2cnc(C3(O)CCC3)s2)c1 [Example 94A-2]
pIC50 [1]: > 7.00

Cc1cc(Nc2nccc(C(F)(F)F)n2)cc(-c2cnc(C3(O)CCNC(=O)CC3O)s2)c1 (single isomer, unassigned) [161(B), [cis]-4,5-dihydroxy-5-[5-(3-methyl-5-{[4-(trifluoromethyl)pyrimidin-2-yl]amino}phenyl)-1,3-thiazol-2-yl]azepan-2-one]
pIC50 [1]: > 7.00

Cc1cc(Nc2nccc(C(C)(C)C)n2)cc(-c2cnc(C(C)(C)S(N)(=O)=O)s2)c1 [Example 70-1]
pIC50 (rhSYK Activity, Table 70): > 7.00

Cc1cc(Nc2nccc(C(F)(F)F)n2)cc(-c2cnc([C@]3(O)CC[C@@H](NC(=O)CCc4cn[nH]c4)CC3)s2)c1 [Example 54E-26]
pIC50 (rhSYK Activity, Table 54E): > 7.00

Cc1cc(Nc2nccc(C(F)(F)F)n2)cc(-c2cnc(C(C)(O)c3ccccc3OCC(=O)O)s2)c1 (stereo not shown) [Example 33D-11]
pIC50 (rhSYK Activity, Table 33D): > 7.00

Cc1cc(Nc2ncc(Cl)c(C)n2)cc(-c2cnc([C@]3(O)CC[C@@H](C(=O)O)[C@@H](C)C3)s2)c1 [Example 113A-28]
pIC50 (rhSYK Activity, Table 113A): > 7.00

COc1cnc(Nc2cc(C)cc(-c3cnc(C(C)(O)C(F)(F)F)s3)c2)nc1 (stereo not shown) [Example 100B-3]
pIC50 [1]: 6.00 to 7.00

Cc1cc(Nc2nccc(C(F)(F)F)n2)cc(-c2cnc(C3(NC(=O)NC(N)=O)COC3)s2)c1 [65-1]
pIC50 (rhSYK Activity, Table 65): > 7.00

COCCOc1ccnc(Nc2cc(C)cc(-c3cnc(C4(O)CCC(C(=O)O)CC4)s3)c2)n1 (stereo not shown) [Example 113A-1]
pIC50 (rhSYK Activity, Table 113A): > 7.00

Cc1cc(Nc2nccc(C(F)(F)F)n2)cc(-c2cnc(C3(O)CCCN(C(=O)CCC(F)(F)F)CC3)s2)c1 (stereo not shown) [Example 54D-90]
pIC50 (rhSYK Activity, Table 54D): > 7.00

Cc1cc(Nc2ncc(F)cn2)cc(-c2cnc(C3(O)CCC3)s2)c1 [Example 100A-4]
pIC50 [1]: 6.00 to 7.00

CCCCSc1ccnc(Nc2cc(C)cc(-c3cnc(C4(O)CCC4)s3)c2)n1 [Example 108A-41]
pIC50 (rhSYK Activity, Table 108A): 6.00 to 7.00

Cc1cc(Nc2nccc(C(F)(F)F)n2)cc(-c2cnc(CNc3cc(C(=O)O)n[nH]3)s2)c1 [Example 88A-32]
pIC50 [1]: > 7.00

Cc1cc(Nc2nccc(C(F)(F)F)n2)cc(-c2cnc(C3(O)CCN(C(=O)CO)C3)s2)c1 (stereo not shown) [54B-21]
pIC50 (rhSYK Activity, Table 54B): > 7.00

Cc1cc(Nc2nccc(OCC3CCCOC3)n2)cc(-c2cnc(C3(O)CCC3)s2)c1 (stereo not shown) [Example 108A-4]
pIC50 (rhSYK Activity, Table 108A): > 7.00

Cc1cc(Nc2nccc(C(F)(F)F)n2)cc(-c2cnc([C@]3(O)CC[C@@H](NC(=O)c4ccccc4)CC3)s2)c1 [Example 54E-9]
pIC50 (rhSYK Activity, Table 54E): > 7.00

Cc1cc(Nc2nccc(C(F)(F)F)n2)cc(-c2cnc(C(=O)N3CCN(CC(F)(F)F)CC3)s2)c1 [Example 87B-15]
pIC50 [1]: 5.00 to 6.00

Cc1cc(Nc2nccc(C(F)(F)F)n2)cc(-c2cnc(C(C)(C)C(=O)N3CCOCC3)s2)c1 [Example 85A-3]
pIC50 [1]: > 7.00

Cc1cc(Nc2nccc(C(F)(F)F)n2)cc(-c2cnc(C3(O)CC4CCC(C3)C4C(=O)O)s2)c1 (stereo not shown) [Example 33C-2]
pIC50 (rhSYK Activity, Table 33C): > 7.00

Cc1cc(Nc2nccc(C(F)(F)F)n2)cc(-c2cnc(C3(c4ccc(C(=O)O)cc4)CC3)s2)c1 [Example 113D-3]
pIC50 (rhSYK Activity, Table 113D, upper part): > 7.00

Cc1cc(Nc2nccc(C(F)(F)F)n2)cc(-c2cnc(C(C)(O)c3ccc(C(=O)O)nc3)s2)c1 (stereo not shown) [Example 149, 5-{1-Hydroxy-1-[5-(3-methyl-5-{[4-(trifluoromethyl)pyrimidin-2-yl]amino}phenyl)-1,3-thiazol-2-yl]ethyl}pyridine-2-carboxylic acid]
pIC50 [1]: > 7.00

Cc1cc(Nc2nccc(OCC3CCNCC3)n2)cc(-c2cnc(C3(O)CCC3)s2)c1 [Example 94A-24]
pIC50 [1]: 6.00 to 7.00

Cc1cc(Nc2nccc(C(F)(F)F)n2)cc(-c2cnc(C3(O)CCC(NC(=O)CC4CCOCC4)CC3)s2)c1 (stereo not shown) [Example 54E-29]
pIC50 (rhSYK Activity, Table 54E): > 7.00

Cc1cc(Nc2nccc(C(F)(F)F)n2)cc(-c2cnc(C3(O)CCN(C(=O)Cn4ccnc4)CC3)s2)c1 [Example 54A-35]
pIC50 (RHSYK Activity, Table 54A): > 7.00

NC(=O)NC(=O)Nc1cc(Nc2nccc(C(F)(F)F)n2)cc(-c2cnc(C3(O)CCC3)s2)c1 [Example 19-5]
pIC50 (rhSYK Activity, table of Examples 19-x): > 7.00

CCc1cnc(Nc2cc(C)cc(-c3cnc(C4(O)CCC4)s3)c2)nc1 [Example 100A-6]
pIC50 [1]: 6.00 to 7.00

Cc1cc(Nc2nccc(C(F)(F)F)n2)cc(-c2cnc(C3(O)CCC(C(=O)O)C(C)(C)C3C)s2)c1 (stereo not shown) [Example 33A-75]
pIC50 (rhSYK Activity, Table 33-A): > 7.00

Cc1cc(Nc2nccc(OC(C)C)n2)cc(-c2cnc([C@@]3(O)CC[C@H](C(=O)O)C(C)(C)C3)s2)c1 [116A-33]
pIC50 (rhSYK Activity, Table 116A): > 7.00

Cc1cc(Nc2nccc(C(F)(F)F)n2)cc(-c2cnc(CCc3nnco3)s2)c1 [Example 79-7]
pIC50 [1]: > 7.00

COC(=O)C1(C(=O)N2CCC(O)(c3ncc(-c4cc(C)cc(Nc5nccc(C(F)(F)F)n5)c4)s3)CC2)CC1 [Example 54A-54]
pIC50 (RHSYK Activity, Table 54A): > 7.00

Cc1cc(Nc2nccc(C(F)(F)F)n2)cc(-c2cnc(C3(O)CCCN(C(=O)C4CCC(=O)O4)CC3)s2)c1 (stereo not shown) [Example 54D-66]
pIC50 (rhSYK Activity, Table 54D): > 7.00

Cc1cc(Nc2nccc(C(F)(F)F)n2)cc(-c2cnc(C3(O)CCCN(C(=O)c4n[nH]c(C(F)(F)F)n4)CC3)s2)c1 (single isomer, unassigned) [Example 54D-109]
pIC50 (rhSYK Activity, Table 54D): > 7.00

CCC(CO)NCc1ncc(-c2cc(C)cc(Nc3nccc(C(F)(F)F)n3)c2)s1 (stereo not shown) [Example 88A-16]
pIC50 [1]: > 7.00

Cc1cc(Nc2nccc(C(F)(F)F)n2)cc(-c2cnc(C3(O)CCCN(C(=O)CCC(N)=O)CC3)s2)c1 (single isomer, unassigned) [Example 54D-41]
pIC50 (rhSYK Activity, Table 54D): > 7.00

Cc1cc(Nc2nccc(OCC3CC(=O)N(C)C3)n2)cc(-c2cnc(C3(O)CCC3)s2)c1 (stereo not shown) [Example 108A-23]
pIC50 (rhSYK Activity, Table 108A): > 7.00

Cc1cc(Nc2nccc(C(F)(F)F)n2)cc(-c2cnc(C3(O)CCC(NC(=O)C4CCCCO4)CC3)s2)c1 (stereo not shown) [Example 54E-16]
pIC50 (rhSYK Activity, Table 54E): > 7.00

COC(=O)C1CCC(O)(c2ncc(-c3cc(C)cc(Nc4nccc(C5CC5)n4)c3)s2)CC1(C)C (stereo not shown) [Example 33A-70]
pIC50 (rhSYK Activity, Table 33-A): > 7.00

CCC(=O)N1CCC(O)(c2ncc(-c3cc(C)cc(Nc4nccc(C(F)(F)F)n4)c3)s2)CC1 [Example 54A-4]
pIC50 (RHSYK Activity, Table 54A): > 7.00

Cc1cc(Nc2nccc(C(F)(F)F)n2)cc(-c2cnc(C3(O)CCN(C(=O)Cc4cccnc4)CC3)s2)c1 [Example 54A-45]
pIC50 (RHSYK Activity, Table 54A): > 7.00

COc1ccnc(Nc2cc(C)cc(-c3cnc(C4(NC(=O)NC(N)=O)CCC4)s3)c2)n1 [65-2]
pIC50 (rhSYK Activity, Table 65): > 7.00

Cc1cc(Nc2nccc(OCc3nccn3C)n2)cc(-c2cnc(C3(O)CCC3)s2)c1 [Example 108A-1]
pIC50 (rhSYK Activity, Table 108A): > 7.00

Cc1cc(Nc2nccc(C(C)O)n2)cc(-c2cnc(C3(O)CCC(C(=O)O)C(C)(C)C3)s2)c1 (single isomer, unassigned) [Example 100A-14]
pIC50 [1]: > 7.00

OC1(c2ncc(-c3cccc(Nc4nccc(C(F)(F)F)n4)c3)s2)CCCC1 [Example 15-2]
pIC50 (rhSYK Activity, Table 15): > 7.00

Cc1cc(Nc2nccc(C(F)(F)F)n2)cc(-c2cnc(C3(C(=O)OC(C)(C)C)CC3)s2)c1 [Example 83, tert-butyl 1-[5-(3-methyl-5-{[4-(trifluoromethyl)pyrimidin-2-yl]amino}phenyl)-1,3-thiazol-2-yl]cyclopropanecarboxylate]
pIC50 [1]: 6.00 to 7.00

Cc1cc(Nc2nccc(C(F)(F)F)n2)cc(-c2cnc(-c3cccnc3)s2)c1 [Example 114-3]
pIC50 [1]: > 7.00

Cn1cc(-c2ncc(-c3cccc(Nc4nccc(C(F)(F)F)n4)c3)s2)cn1 [Example 21-4]
pIC50 (rhSYK Activity, Table 21): > 7.00
